Measurements as given in patent publication US4442124A, “Valproic acid ester with antiepileptic and anticonvulsant activity and pharmaceutical compositions therefrom” (priority 1979, dated 1984).

What was measured:
[1] = Acute toxicity in Swiss albino mice (Lichtfield and Wilcoxon); details: in vivo, mouse, mortality within 8 days, read-out: DL50 and range
Procedure: (§1) The acute toxicity of PEV has been investigated on Swiss albino mice of about 20 grams average weight and in Wister rats of 150±10 grams average weight by administration both through the oral route and by the endoperitoneal route.
(§2) All the animals fasted beginning 12 hours before the experiment. For the experiment, there are used 10 animals that is 5 males and 5 females for each dosage level of treatment. The values of […] are expressed in mg/kg and are calculated on the basis of the mortality which has been determined within 8 days after the administration in accordance with the method of Lichtfield and Wilcoxon.

Solubility = assay type: physicochemical
[2] = Pharmacokinetics: plasma levels of valproic acid in Sprague-Dawley rats; assay type: in vivo; details: rat
Procedure: The test tubes are then removed from the ice and are stirred for a period of ten minutes. Centrifugation is carried out for the purpose of separating the phases and the organic phase in n-hexane is directly injected into the gas-chromatographic apparatus.
The study of plasma levels is carried out on Sprague-Dawley albino rats of an average body weight of 215 grams (200-230). Prior to the experiment, the rats fasted for a period of twelve hours. The acid is administered both orally and intravenously, but the ester alone is administered orally. The administrations are carried out with equimolar doses, that is in the dose of 1.39 millimole/kg which corresponds to a dose of 230 mg/kg in the case of the acid administered as the sodium salt and a dose of 360 mg/kg in the case of PEV. Both the acid as well as the ester are dissolved in ethyleneglycol:ethyl alcohol in the proportion of 65-35 (V/V). The concentration of the solution is calculated in a manner to administer 2 cc/kg. After the intervals of time shown in Table 2 in minutes or in hours, the rats in groups of six, are killed by decapitation, the blood is collected and centrifuged for the purpose of obtaining the plasma which is extracted and analyzed as previously described.
On the basis of the results, it is concluded that PEV is absorbed more rapidly, but even more significant, more uniformly compared with valproic acid. An index of the dispersion of the data has been calculated by determining the standard variation in percent with respect to the average value for each group under examination.

[3] = Acute toxicity in Wister rats (Lichtfield and Wilcoxon); details: in vivo, rat, mortality within 8 days, read-out: DL50 and range
Procedure: as §1, §2

Wister rats = details: rat, oral, literature value; cited from earlier work

With `CCCC(CCC)C(=O)OCOC(=O)C(C)(C)C` [PEV, pivaloyloxymethyl 2-propyl-pentanoate] as the molecule, how does the LD50 at 192 h ([1]; ip, endoperitoneal) read?
The LD50 at 192 h was 510 mg/kg.

And the LD50 at 192 h ([1]; oral)?
Its LD50 at 192 h is 1210 mg/kg.

What about the “Solubility in alcohols, ethers, ketones” value (Solubility; alcohols, ethers, ketones) of the same molecule?
Its value is “soluble in alcohols, ethers, ketones”.

What about the Solubility in water (Solubility; water) of the same molecule?
Its Solubility in water is “insoluble in water”.

And the Absolute biodisponibility ([2]; in vivo)?
The Absolute biodisponibility was 72.4%.

And the “Average index of dispersion of plasma levels (standard variation in percent of average)” value ([2]; in vivo, po)?
The value was 15.2.

What about the “Difference in biodisponibility in favor of the ester” value ([2]; in vivo, po) of the same molecule?
Its value is 45.5%.

And the “Presence of PEV (intact ester) in the plasma” value ([2]; orally, 1.39 mmoles/kg)?
The value was “none of the rats treated with the ester have exhibited the presence of PEV in the plasma”.

And the LD50 at 192 h ([3]; ip, endoperitoneal)?
Its LD50 at 192 h is 608 mg/kg.

What about the LD50 at 192 h ([3]; oral) of the same molecule?
Its LD50 at 192 h is 1440 mg/kg.

With `CCCC(CCC)C(=O)[O-].[Na+]` [sodium valproate, reference compound] as the molecule, how does the bioavailability ([2]; in vivo, 1390 umol/kg, oral, from AUC versus i.v., read-out: Absolute biodisponibility) read?
Its bioavailability is 49.9%.

Which “Average index of dispersion of plasma levels (standard variation in percent of average)” value ([2]; in vivo, iv) does the source give for `CCCC(CCC)C(=O)O` [valproic acid, 2-propyl-pentanoic acid] here?
The value was 18.3.

What about the “Average index of dispersion of plasma levels (standard variation in percent of average)” value ([2]; in vivo, po) of the same molecule?
The value was 60.5.

What about the “DL50 (Merck Index, 9th Edition)” value (Wister rats) of the same molecule?
Its value is 670 mg/kg.
